The first assay concerns Human primary T cells. Nature of the assay: IL-2 ELISA, human primary T cell, anti-CD3+CD28+ (whole cell assay). Type of assay: cell-based. The settings on record: Homo sapiens, T-cell, 24 h, human primary T cells stimulated with anti-CD3 + anti-CD28, 24 hours. The procedure, abridged: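 PBMC-derived T cells, pre-expanded on αCD3/αCD28 with IL-2 and then washed free of IL-2, were preincubated with compound for 1 hr at 37° C (100,000 cells/well). They were then stimulated on 1 μg/ml αCD3 plus 5 μg/ml αCD28 for 24 h, and supernatant IL-2 was measured by ELISA. The counter-assay used 0.5 ng/ml PMA plus 0.1 μM ionomycin instead.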
As usually defined, the IC50 is the concentration needed to halve the response being measured. In the case of `CC1(C)CC(Nc2nc(Nc3ccc(Oc4cccnc4)c(C(F)(F)F)c3)ncc2F)CC(C)(C)N1` [Compound I-59, 5-fluoro-N2-(3-(trifluoromethyl)-4-(pyridin-3-yloxy)phenyl)-N4-(2,2,6,6-tetramethylpiperidin-4-yl)pyrimidine-2,4-diamine], the IC50 was over 1 µM.

For the compound `CN1C(C)(C)CC(Nc2nc(Nc3cc(F)c(OC4CCN(CCOCc5ccccc5)CC4)c(F)c3)ncc2F)CC1(C)C` [III-56, N2-(4-(1-(2-(benzyloxy)ethyl)piperidin-4-yloxy)-3,5-difluorophenyl)-5-fluoro-N4-(1,2,2,6,6-pentamethylpiperidin-4-yl)pyrimidine-2,4-diamine], the IC50 was in the range of 0.5 to 1 µM.

`CC(C)Oc1ncc(Nc2ncc(C#N)c(NC3CC(C)(C)NC(C)(C)C3)n2)cc1-c1nnnn1C` [Compound I-130, 2-(6-isopropoxy-5-(1-methyl-1H-tetrazol-5-yl)pyridin-3-ylamino)-4-(2,2,6,6-tetramethylpiperidin-4-ylamino)pyrimidine-5-carbonitrile]: the concentration for half-maximal inhibition (IC50) was over 1 µM.

Regarding `CC1(C)CC(Nc2nc(Nc3ccc(Oc4cccnc4)c(OC(F)F)c3)ncc2F)CC(C)(C)N1` [Compound I-45, N2-(3-(difluoromethoxy)-4-(pyridin-3-yloxy)phenyl)-5-fluoro-N4-(2,2,6,6-tetramethylpiperidin-4-yl)pyrimidine-2,4-diamine], the IC50 fell in the range of 0.25 to 0.5 µM.

For the compound `CC1(C)CC(Nc2nc(Nc3cc(F)c(OC(C)(C)CCN4CCCC4)c(F)c3)ncc2F)CC(C)(C)N1` [III-48, N2-(3,5-difluoro-4-(2-methyl-4-(pyrrolidin-1-yl)butan-2-yloxy)phenyl)-5-fluoro-N4-(2,2,6,6-tetramethylpiperidin-4-yl)pyrimidine-2,4-diamine], the IC50 was over 1 µM.

On to `CN1C(C)(C)CC(Nc2nc(Nc3ccc(OC4CCN(CCO)CC4)c(F)c3)ncc2F)CC1(C)C` [III-58, 2-(4-(2-fluoro-4-(5-fluoro-4-(1,2,2,6,6-pentamethylpiperidin-4-ylamino)pyrimidin-2-ylamino)phenoxy)piperidin-1-yl)ethanol], for which the IC50 is 0.5 to 1 µM.

As for `CC(C)N1CC(Oc2ccc(Nc3ncc(F)c(NC4CC(C)(C)NC(C)(C)C4)n3)cc2OC(F)F)C1` [III-39, N2-(3-(Difluoromethoxy)-4-(1-isopropylazetidin-3-yloxy)phenyl)-5-fluoro-N4-(2,2,6,6-tetramethylpiperidin-4-yl)pyrimidine-2,4-diamine], the IC50 lay in the range of 0.5 to 1 µM.

Take `CN1C(C)(C)CC(Nc2nc(Nc3ccc(OC4CCN(CCOCc5ccccc5)CC4)c(F)c3)ncc2F)CC1(C)C` [III-54, N2-(4-(1-(2-(benzyloxy)ethyl)piperidin-4-yloxy)-3-fluorophenyl)-5-fluoro-N4-(1,2,2,6,6-pentamethylpiperidin-4-yl)pyrimidine-2,4-diamine]: the IC50 lay in the range of 0.5 to 1 µM.

As for `CC1(C)CC(Nc2nc(Nc3cnc(OCCN4CCCC4=O)c(OC(F)F)c3)ncc2F)CC(C)(C)N1` [Compound I-141, 1-(2-(3-(difluoromethoxy)-5-(5-fluoro-4-(2,2,6,6-tetramethylpiperidin-4-ylamino)pyrimidin-2-ylamino)pyridin-2-yloxy)ethyl)pyrrolidin-2-one], the IC50 was over 1 µM.

Consider `CN1C(C)(C)CC(Nc2nc(Nc3ccc(OC4CCN(S(C)(=O)=O)CC4)c(F)c3)ncc2F)CC1(C)C` [III-14, 5-fluoro-N2-(3-fluoro-4-(1-(methylsulfonyl)piperidin-4-yloxy)phenyl)-N4-(1,2,2,6,6-pentamethylpiperidin-4-yl)pyrimidine-2,4-diamine], for which the IC50 was over 1 µM.

On to `Cn1nnnc1-c1cc(Nc2ncc(F)c(NC3CC(C)(C)NC(C)(C)C3)n2)cc(OC2COC2)c1` [III-145, 5-fluoro-N2-(3-(1-methyl-1H-tetrazol-5-yl)-5-(oxetan-3-yloxy)phenyl)-N4-(2,2,6,6-tetramethylpiperidin-4-yl)pyrimidine-2,4-diamine], for which the IC50 is over 1 µM.

For the compound `CN1C(C)(C)CC(Nc2nc(Nc3ccc(OC4COC4)c(-c4nnnn4C)c3)ncc2F)CC1(C)C` [III-127, 5-fluoro-N2-(3-(1-methyl-1H-tetrazol-5-yl)-4-(oxetan-3-yloxy)phenyl)-N4-(1,2,2,6,6-pentamethylpiperidin-4-yl)pyrimidine-2,4-diamine], the IC50 is under 0.25 µM.

Regarding `CC(C)Oc1ncc(Nc2ncc(F)c(NC3CC(C)(C)N(C)C(C)(C)C3)n2)cc1-c1nnnn1C(C)C` [Compound I-131, 5-fluoro-N2-(6-isopropoxy-5-(1-isopropyl-1H-tetrazol-5-yl)pyridin-3-yl)-N4-(1,2,2,6,6-pentamethylpiperidin-4-yl)pyrimidine-2,4-diamine], the IC50 lay in the range of 0.5 to 1 µM.

In the case of `CN1C(C)(C)CC(Nc2nc(Nc3cc(F)cc(OCCn4cncn4)c3)ncc2F)CC1(C)C` [Compound I-40, N2-(3-(2-(1H-1,2,4-triazol-1-yl)ethoxy)-5-fluorophenyl)-5-fluoro-N4-(1,2,2,6,6-pentamethylpiperidin-4-yl)pyrimidine-2,4-diamine], the IC50 was in the range of 0.5 to 1 µM.

Regarding `CN1C(C)(C)CC(Nc2nc(Nc3ccc(OCCN4CCCC4=O)c(C(F)(F)F)c3)ncc2F)CC1(C)C` [Compound I-56, 1-(2-(4-(4-(1,2,2,6,6-pentamethylpiperidin-4-ylamino)-5-fluoropyrimidin-2-ylamino)-2-(trifluoromethyl)phenoxy)ethyl)pyrrolidin-2-one], the IC50 lay in the range of 0.5 to 1 µM.

Take `CC1(C)CC(Nc2nc(Nc3ccc(Oc4ccncc4)c(OC(F)F)c3)ncc2C#N)CC(C)(C)N1` [Compound I-58, 4-(2,2,6,6-tetramethylpiperidin-4-ylamino)-2-(3-(difluoromethoxy)-4-(pyridin-4-yloxy)phenylamino)pyrimidine-5-carbonitrile]: the IC50 lay in the range of 0.5 to 1 µM.

On to `CC(C)Oc1ncc(Nc2ncc(C#N)c(NC3CC(C)(C)N(C)C(C)(C)C3)n2)cc1-c1nnnn1C` [Compound I-129, 2-(6-isopropoxy-5-(1-methyl-1H-tetrazol-5-yl)pyridin-3-ylamino)-4-(1,2,2,6,6-pentamethylpiperidin-4-ylamino)pyrimidine-5-carbonitrile], for which the IC50 lay in the range of 0.5 to 1 µM.

With `CC1(C)CC(Nc2nc(Nc3cccc(-n4ccc(C(F)(F)F)n4)c3)ncc2F)CC(C)(C)N1` [Compound I-3, 5-fluoro-N2-(3-(3-(trifluoromethyl)-1H-pyrazol-1-yl)phenyl)-N4-(2,2,6,6-tetramethylpiperidin-4-yl)pyrimidine-2,4-diamine], the IC50 was over 1 µM.

The assay is the same for the next values; noted with them: human primary T cells stimulated with anti-CD3 + anti-CD28, 24 hours.
In the case of `CCc1nnnn1-c1cc(Nc2ncc(C#N)c(NC3CC(C)(C)NC(C)(C)C3)n2)ccc1OC(F)F` [Compound I-84, 5-cyano-N2-[4-difluoromethoxy-3-(5-ethyl-1H-tetrazol-1-yl)]phenyl-N4-(2,2,6,6-tetramethylpiperidin-4-yl)-2,4-pyrimidinediamine], the IC50 is over 1 µM.

For “N2-(3,5-Dimethoxyphenyl)-5-fluoro-N4-(1-N-oxide-2,2,6,6-pentamethylpiperidin-4-yl)-2,4-pyrimidinediamine [Compound I-111]”, the IC50 is over 1 µM.

For the compound `CCc1nnnn1-c1cc(Nc2ncc(C(N)=O)c(NC3CC(C)(C)NC(C)(C)C3)n2)ccc1OC(F)F` [Compound I-83, 5-aminocarbonyl-N2-[4-difluoromethoxy-3-(5-ethyl-1H-tetrazol-1-yl)]phenyl-N4-(2,2,6,6-tetramethylpiperidin-4-yl)-2,4-pyrimidinediamine], the IC50 was over 1 µM.

Source of the values: patent publication US9149475B2, “Protein kinase C inhibitors and uses thereof” (Rigel Pharmaceuticals, Inc., priority 2009, dated 2015).
